Experiments:
melan-p1 cells [1] = assay: Melanin content of melan-p1 cells with protease inhibitor; assay type: cell-based, mouse; details: melan-p1, high concentrations of tyrosine
Experimental: (§1) (A) Melan-p1 cells incubated in low (0.03 mM) tyrosine and high (0.3 mM) tyrosine (TYR) were treated for 48 hours with increasing concentrations of the protease inhibitor E64 (μM). The tyrosinase activity in the media is expressed as a percentage of total activity in the extract and medium. (B) The concentration of melanin was determined by solubilizing the cell pellet and measuring the absorbance at 470 nm.
(§2) If proteolysis and secretion of tyrosinase were the precipitating factor in the misrouting of tyrosinase, then E64 should increase melanin accumulation in melan-p1 cells. […] A range of E64 concentrations was tested at low (0.03 mM) and high (0.3 mM) tyrosine.

melan-p1 cells [2] = assay: Secretion of tyrosinase into medium of melan-p1 cells with protease inhibitor; assay type: cell-based, mouse
Experimental: as §1
Tyrosinase is a type I membrane protein anchored in the membrane, and it is thus likely that proteolysis, which leads to the clipping of the tail, is required for secretion. The truncated protein would not be detected by αPEP7, which is directed against the tail, although the catalytic domains would remain functional. We, therefore, examined the effects of a series of protease inhibitors on the secretion of tyrosinase by melan-a and melan-p1 cells.
as §2

B16 melanoma cells = assay: Melanin content after ATPase inhibitor treatment, B16; assay type: cell-based, mouse; details: 36 hours
Experimental: (§3) Wild type melan-a (a/a, P/P), an immortalized melanocyte line derived from C57BL6J mice; melan-p1 melanocytes (a/a, p^cp/p^25H), an immortalized line derived from p-null mice; melan-p1 (P10), a melan-p1 line stably transfected with an expression plasmid carrying the pink-eyed dilution gene; B16, an amelanotic mouse melanoma cell line; and B16F10, a slightly pigmented mouse melanoma cell line, were used in this study.
(§4) Cells were cultured in RMPI-1640 (Sigma, St. Louis, Mo.) supplemented with 10% fetal calf serum, 5% sodium pyruvate, 5% glutamate, 5 units/ml penicillin, 5 μg/ml streptomycin, 1% non-essential amino acids and 200 nM 12-O-tetradecanoyl phorbol 13-acetate for 24 hours The medium was than replaced with RPMI containing either 0, 1, 2 or 2.5 μM bafilomycin A1 (Sigma, St. Louis, Mo.) or 0, 0.5 or 1.0 μM concanamycin A (Sigma, St. Louis, Mo.). […] The supernatant was removed and protein content determined using a protein assay kit (BioRad, Richmond, Calif.).
(§5) The melanin content in the pellet was determined following removal of the supernatant Each sample was treated with 0.5 ml ethanol:ether (1:1), vortexed and incubated at room temperature for 10 minutes. […] The sample was then transferred to a 96-well plate and the optical density was read at 490 nm. […]

Melan-p (P10) cells = assay: Melanin content after ATPase inhibitor treatment, Melan-p (P10); assay type: cell-based, mouse; details: 36 hours
Experimental: as §3, §4, §5

[3] = tested on: amelanotic melanoma cells that express tyrosinase; details: nanomolar concentrations; cited from earlier work
B16F10 melanoma cells = assay: Melanin content after ATPase inhibitor treatment, B16F10; assay type: cell-based, mouse; details: 36 hours
Experimental: as §3, §4, §5

[4] = tested on: Melan-a wild type melanocytes; assay: Melanin content after ATPase inhibitor treatment, Melan-a; assay type: cell-based, mouse; details: 36 hours
Experimental: as §3, §4, §5

[5] = tested on: Melan-p p-null melanocytes; assay: Melanin content after ATPase inhibitor treatment, Melan-p; assay type: cell-based, mouse; details: 36 hours
Experimental: as §3, §4, §5

p-glycoprotein ATPase = p-glycoprotein ATPase (Cricetulus griseus, UniProt P21448); details: micromolar concentrations; cited from earlier work
Chain of p-glycoprotein ATPase (P21448 whole entry): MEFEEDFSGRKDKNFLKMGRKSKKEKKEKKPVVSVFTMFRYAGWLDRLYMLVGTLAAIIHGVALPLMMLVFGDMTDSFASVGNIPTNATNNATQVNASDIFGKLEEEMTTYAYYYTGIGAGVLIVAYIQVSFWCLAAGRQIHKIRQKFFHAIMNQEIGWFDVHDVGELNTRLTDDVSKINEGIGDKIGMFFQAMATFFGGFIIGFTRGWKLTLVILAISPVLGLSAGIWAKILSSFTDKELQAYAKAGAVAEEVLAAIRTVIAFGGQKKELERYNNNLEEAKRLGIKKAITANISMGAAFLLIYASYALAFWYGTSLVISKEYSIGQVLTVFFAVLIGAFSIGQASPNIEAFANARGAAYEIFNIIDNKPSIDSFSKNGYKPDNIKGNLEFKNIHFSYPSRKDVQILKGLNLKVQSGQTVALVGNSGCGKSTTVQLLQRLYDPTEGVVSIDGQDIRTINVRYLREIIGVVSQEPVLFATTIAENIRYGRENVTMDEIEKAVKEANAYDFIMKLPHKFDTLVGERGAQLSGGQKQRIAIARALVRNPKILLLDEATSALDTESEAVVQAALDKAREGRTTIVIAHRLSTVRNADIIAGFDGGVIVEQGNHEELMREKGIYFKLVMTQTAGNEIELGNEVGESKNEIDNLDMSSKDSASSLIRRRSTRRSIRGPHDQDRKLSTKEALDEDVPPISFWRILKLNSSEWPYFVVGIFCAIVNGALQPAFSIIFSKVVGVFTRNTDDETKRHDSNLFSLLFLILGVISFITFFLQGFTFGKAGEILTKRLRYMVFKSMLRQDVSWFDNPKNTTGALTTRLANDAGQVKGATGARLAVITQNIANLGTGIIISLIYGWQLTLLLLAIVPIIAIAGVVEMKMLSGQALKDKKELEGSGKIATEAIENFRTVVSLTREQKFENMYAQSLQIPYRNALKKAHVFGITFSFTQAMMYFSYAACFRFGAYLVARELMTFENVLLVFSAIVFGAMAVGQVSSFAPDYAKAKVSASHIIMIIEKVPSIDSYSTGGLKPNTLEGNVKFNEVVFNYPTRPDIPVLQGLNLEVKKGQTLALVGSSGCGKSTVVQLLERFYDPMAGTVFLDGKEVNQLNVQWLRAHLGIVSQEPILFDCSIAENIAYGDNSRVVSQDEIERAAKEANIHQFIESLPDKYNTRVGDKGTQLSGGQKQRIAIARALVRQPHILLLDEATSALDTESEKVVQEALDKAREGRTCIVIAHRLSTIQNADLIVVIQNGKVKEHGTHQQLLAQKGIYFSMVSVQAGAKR

tyrosinase [6] = biological target: T1, tyrosinase (Mus musculus, UniProt P11344); assay: Tyrosinase activity of extracts of COS cells transfected with tyrosinase-encoding gene alone (V+T); assay type: cell-based; set-up: expressed in transfected cells; host or cells: COS cells (monkey kidney); details: vs untreated
T1 sequence (P11344 19-533): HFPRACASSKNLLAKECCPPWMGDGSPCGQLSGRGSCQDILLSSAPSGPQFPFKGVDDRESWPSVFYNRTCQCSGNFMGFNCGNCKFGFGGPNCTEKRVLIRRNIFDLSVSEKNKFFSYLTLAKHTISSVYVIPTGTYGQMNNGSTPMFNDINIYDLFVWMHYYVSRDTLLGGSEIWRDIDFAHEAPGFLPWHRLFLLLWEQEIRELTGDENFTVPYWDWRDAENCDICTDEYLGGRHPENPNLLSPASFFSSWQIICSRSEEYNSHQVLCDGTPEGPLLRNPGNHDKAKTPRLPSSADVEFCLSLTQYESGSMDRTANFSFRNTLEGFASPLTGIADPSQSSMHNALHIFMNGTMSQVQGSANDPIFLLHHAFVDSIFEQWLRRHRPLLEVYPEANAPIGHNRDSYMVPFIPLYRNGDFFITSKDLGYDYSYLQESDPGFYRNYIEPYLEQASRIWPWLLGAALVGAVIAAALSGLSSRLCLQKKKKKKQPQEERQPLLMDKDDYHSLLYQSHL
Source text: (§6) Expression vectors were constructed to express P protein and tyrosinase genes in cultured cells. Specifically, the coding sequence for tyrosinase was removed as a HindIII-EcoRI fragment from clone TYBS (Yokohama et al., 1990, Nucl. Acids. Res. 18:7293-7298) and cloned into the HindIII/EcoRI sites of pcDNA I/lamp (Invitrogen, Calif.). Coding sequence for the P protein was removed as a BamHI-EcoRI fragment from MC2701 (Gardner et al., 1992, supra) and cloned into the BamHI/EcoRV sites of pcDNA3 and pcDNA3.1/V5/His-TOPO (Invitrogen, Calif.). COS cells were transfected with the pcDNA1-based plasmids and FuGENE™ 6 (Roche Molecular Biochemicals, Indianapolis, Ind.) as transfection agents for 48 hours. Cells were transformed with: (i) the vector alone; (ii) the vector carrying a tyrosinase-encoding gene; (iii) the vector carrying a P protein-encoding gene; or (iv) vectors carrying a tyrosinase-encoding gene and a P protein-encoding gene. Transformed cells were washed and extracted as above. Tyrosinase activity was then measured as above. Tyrosinase assays were performed on 60 micrograms of cell protein.
(§7) The tyrosinase activity of cell extracts was determined as above.

tyrosinase [7] = biological target: T1, tyrosinase; assay: Tyrosinase activity of melan-a cell extracts (radiometric tyrosine hydroxylase assay); assay type: cell-based; details: melan-a cells, 48 hours, vs untreated
Experimental: Cells were washed and extracted with 50 mM Tris-HCl (pH 7.4), 2 mM EDTA, 150 mM NaCl and 1% Triton X-100. Cell extracts were analyzed for tyrosinase activity using a radiometric tyrosine hydroxylase assay (Orlow, S. J. et al., 1990, supra).

P protein = biological target: T2, P protein (Mus musculus, UniProt Q62052); assay: Tyrosinase activity of extracts of COS cells transfected with tyrosinase-encoding and P protein-encoding genes (T+P); assay type: cell-based; details: vs untreated
T2 construct: expressed in transfected cells; host or cells: COS cells (monkey kidney), co-transfected with the tyrosinase vector
T2 sequence (Q62052 1-833): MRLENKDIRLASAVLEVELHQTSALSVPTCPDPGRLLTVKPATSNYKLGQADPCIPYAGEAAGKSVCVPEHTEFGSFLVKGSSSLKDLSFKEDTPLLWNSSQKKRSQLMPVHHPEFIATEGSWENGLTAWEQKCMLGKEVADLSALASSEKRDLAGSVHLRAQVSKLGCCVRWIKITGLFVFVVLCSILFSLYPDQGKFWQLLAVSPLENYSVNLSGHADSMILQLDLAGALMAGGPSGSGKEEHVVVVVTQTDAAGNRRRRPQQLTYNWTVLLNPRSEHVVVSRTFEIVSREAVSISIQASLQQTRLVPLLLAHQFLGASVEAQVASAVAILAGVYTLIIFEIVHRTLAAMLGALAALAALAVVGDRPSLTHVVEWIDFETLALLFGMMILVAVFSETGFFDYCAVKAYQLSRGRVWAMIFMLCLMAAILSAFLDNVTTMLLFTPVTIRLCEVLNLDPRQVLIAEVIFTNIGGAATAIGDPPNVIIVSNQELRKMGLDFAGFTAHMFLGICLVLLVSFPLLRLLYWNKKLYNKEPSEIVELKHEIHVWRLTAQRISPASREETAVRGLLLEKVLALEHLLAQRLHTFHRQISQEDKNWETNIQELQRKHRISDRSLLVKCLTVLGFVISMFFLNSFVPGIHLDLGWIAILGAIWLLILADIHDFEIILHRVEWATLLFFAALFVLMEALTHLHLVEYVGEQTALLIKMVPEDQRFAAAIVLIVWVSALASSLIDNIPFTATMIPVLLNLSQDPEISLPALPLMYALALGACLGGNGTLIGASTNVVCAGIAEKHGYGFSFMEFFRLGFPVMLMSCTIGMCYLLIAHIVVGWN
Source text: as §6, §7

[8] = tested on: late endosomal/lysosomal cholesterol trafficking; details: cited from earlier work
[9] = bafilomycin A1 0, 1, 2 or 2.5 μM
[10] = concanamycin A 0, 0.5 or 1.0 μM

## CC(C)C[C@H](NC(=O)[C@H]1O[C@@H]1C(=O)O)C(=O)NCCCCN=C(N)N [E64]
melan-p1 cells [1]
  intracellular melanin production: reduced intracellular melanin production
melan-p1 cells [2]; melan-p1, 0.03 mM tyrosine, 12.5 μM E64, 48 hours (untreated 7.1%)
  tyrosinase activity in the media as percentage of total activity in extract and medium: 4.0%
melan-p1 cells [2]; melan-p1, 0.03 mM tyrosine, 25 μM E64, 48 hours (untreated 7.1%)
  tyrosinase activity in the media as percentage of total activity in extract and medium: 3.8%
melan-p1 cells [2]; melan-p1, 0.3 mM tyrosine, E64, 48 hours (untreated 6.5%)
  tyrosinase activity in the media as percentage of total activity in extract and medium: 3.9%

## CO/C1=C\C(C)=C\[C@@H](C)[C@@H](O)[C@@H](C)C/C(C)=C/C=C/[C@H](OC)[C@@H]([C@@H](C)[C@@H](O)[C@H](C)[C@@]2(O)C[C@@H](O)[C@H](C)[C@@H](C(C)C)O2)OC1=O [bafilomycin A1]
B16 melanoma cells; B16, bafilomycin A1 0, 1, 2 or 2.5 μM
  melanin content: does not respond
Melan-p (P10) cells; [9]
  melanin content: initially increases in the presence of μM concentrations of bafilomycin A1 but drops at the highest concentration tested
[3]
  activation of melanogenesis: activate melanogenesis
B16F10 melanoma cells; B16F10, bafilomycin A1 0, 1, 2 or 2.5 μM
  pigmentation: demonstrates increasing pigmentation which diminishes at higher concentrations
[4]; [9]
  melanin content: initially increases in the presence of μM concentrations of bafilomycin A1 but drops at the highest concentration tested
[5]; [9]
  melanin levels: increased with an increase in bafilomycin A1 concentration
p-glycoprotein ATPase
  inhibition of p-glycoprotein ATPase activity: inhibit p-glycoprotein ATPase activity at micromolar concentrations

## CN1[C@@H]2CC[C@H]1C[C@@H](OC(c1ccccc1)c1ccccc1)C2 [benztropine]
Tyrosinase [6]; 10 micromolar compound
  tyrosinase activity of extracts, cells expressing only tyrosinase: did not have an appreciable effect
Tyrosinase [7]; 10 micromolar compound
  tyrosinase activity of cell extracts: greater tyrosinase activities than untreated cells
P protein; 10 micromolar compound
  tyrosinase activity of extracts, cells expressing both P protein and tyrosinase: did not have an appreciable effect

## C/C=C/[C@H]1O[C@@](O)([C@@H](C)[C@H](O)[C@H](C)[C@H]2OC(=O)/C(OC)=C/C(C)=C/[C@@H](C)[C@@H](O)[C@@H](CC)[C@@H](O)[C@H](C)C/C(C)=C/C=C/[C@@H]2OC)C[C@@H](O[C@H]2C[C@@H](O)[C@H](OC(N)=O)[C@@H](C)O2)[C@@H]1C [concanamycin A]
B16 melanoma cells; B16, concanamycin A 0, 0.5 or 1.0 μM
  melanin content: does not respond
Melan-p (P10) cells; [10]
  melanin content: is decreased
[3]
  activation of melanogenesis: activate melanogenesis
B16F10 melanoma cells; B16F10, concanamycin A 0, 0.5 or 1.0 μM
  pigmentation: demonstrates increasing pigmentation which diminishes at higher concentrations
[4]; [10]
  melanin content: is decreased
[5]; [10]
  melanin levels: increase with an increase in concanamycin A concentration
p-glycoprotein ATPase
  inhibition of p-glycoprotein ATPase activity: inhibit p-glycoprotein ATPase activity at micromolar concentrations

## C/C=C/[C@H]1O[C@@](O)([C@@H](C)[C@H](O)[C@H](C)[C@H]2OC(=O)/C(OC)=C/C(C)=C/[C@@H](C)[C@@H](O)[C@@H](C)[C@@H](O)[C@H](C)C/C(C)=C/C=C/[C@@H]2OC)C[C@@H](O[C@H]2C[C@@H](O)[C@H](OC(N)=O)[C@@H](C)O2)[C@@H]1C [concanamycin B]
p-glycoprotein ATPase
  inhibition of p-glycoprotein ATPase activity: inhibit p-glycoprotein ATPase activity at micromolar concentrations

## O=C(O)/C=C\C(=O)O.O=[N+]([O-])c1ccc2nc(N3CCNCC3)ccc2c1 [nitroquipazine, 6-nitro-2-(1-piperazinyl)-quinoline maleate]
Tyrosinase [6]; 30 micromolar compound
  tyrosinase activity of extracts, cells expressing only tyrosinase: lower tyrosinase activity
Tyrosinase [7]; 30 micromolar compound
  tyrosinase activity of cell extracts: greater tyrosinase activities than untreated cells
P protein; 30 micromolar compound
  tyrosinase activity of extracts, cells expressing both P protein and tyrosinase: lower tyrosinase activity

## CC(=O)[C@H]1CC[C@H]2[C@@H]3CCC4=CC(=O)CC[C@]4(C)[C@H]3CC[C@]12C [progesterone]
[8]
  cholesterol movement from the PM to the ER, from the late endosome/lysosome to the ER and to the PM: inhibit cholesterol movement

## CCCCCCCCCCCCC/C=C/[C@@H](O)[C@@H](N)CO [sphingosine]
[8]
  cholesterol movement from the PM to the ER, from the late endosome/lysosome to the ER and to the PM: inhibit cholesterol movement

— patent publication US7604949B2, “Methods and compositions that affect melanogenesis” (New York University, priority 1999, dated 2009)
